Assay results reported in patent US20040043425A1, “Proteins, genes and their use for diagnosis and treatment of chronic asthma” (priority 2000, published 2004).

How the values were obtained:
CAF-1 = conditions: thrombin 20 units/ml
Experimental: Using the following procedure, proteins in primary cultures of human airway myofibroblasts were separated by isoelectric focusing followed by SDS-PAGE and analyzed. Different cultures were used, infra, and two different time points at 1 hour (referred to as “early”) and 6 hours (referred to as “late”) were taken. Parts 6.1.1 to 6.1.14 (inclusive) of the procedure set forth below are hereby designated as the “Reference Protocol”.
Primary cultures of human airway myofibroblasts (Hall IP, Kotlikoff M, Am J Physiol January 1995; 268(1 Pt 1): L1-11, Use of cultured airway myocytes for study of airway smooth muscle; Hirst S J, Eur Respir J April 1996; 9(4): 808-20, Airway smooth muscle cell culture: application to studies of airway wall remodeling and phenotype plasticity in asthma.) were treated by one, or a successive combination of, the following:
thrombin at 20 units/ml (Panettieri R A Jr, Hall I P, Maki C S, Murray R K, Am J Respir Cell Mol Biol August 1995; 13(2):205-16, Alpha-Thrombin increases cytosolic calcium and induces human airway smooth muscle cell proliferation).
(§1) dexamethasone at 1 μM (glucocorticoid).
theophylline 100 μM (Billington C K, Joseph S K, Swan C, Scott M G, Jobson T M, Hall I P, Am J Physiol March 1999; 276(3 Pt 1):L412-9, Modulation of human airway smooth muscle proliferation by type 3 phosphodiesterase inhibition).
Using the protein expression database, matching protein features present in test primary cultures and in control primary cultures were compared.

CAF-29 = assay: 2D electrophoresis fold change of CAF-29 in primary cultures of human airway myofibroblasts; format: cell-based; conditions: thrombin 20 units/ml
Experimental: as §1

CAF-24 = assay: 2D electrophoresis fold change of CAF-24 in primary cultures of human airway myofibroblasts; format: cell-based; conditions: thrombin 20 units/ml, early
Experimental: as §1

CAF-20 = assay: 2D electrophoresis fold change of CAF-20 in primary cultures of human airway myofibroblasts; format: cell-based; conditions: thrombin 20 units/ml, early
Experimental: as §1

CAF-12 = assay: 2D electrophoresis fold change of CAF-12 in primary cultures of human airway myofibroblasts; format: cell-based; conditions: thrombin 20 units/ml, early
Experimental: as §1

CAF-15 = assay: 2D electrophoresis fold change of CAF-15 in primary cultures of human airway myofibroblasts; format: cell-based; conditions: thrombin 20 units/ml
Experimental: as §1

CAF-13 = assay: 2D electrophoresis fold change of CAF-13 in primary cultures of human airway myofibroblasts; format: cell-based; conditions: thrombin 20 units/ml
Experimental: as §1

CAF-22 = assay: 2D electrophoresis fold change of CAF-22 in primary cultures of human airway myofibroblasts; format: cell-based; conditions: thrombin 20 units/ml, early
Experimental: as §1

CAF-18 = assay: 2D electrophoresis fold change of CAF-18 in primary cultures of human airway myofibroblasts; format: cell-based; conditions: thrombin 20 units/ml
Experimental: as §1

CAF-25 = assay: 2D electrophoresis fold change of CAF-25 in primary cultures of human airway myofibroblasts; format: cell-based; conditions: thrombin 20 units/ml
Experimental: as §1

CAF-3 = assay: 2D electrophoresis fold change of CAF-3 in primary cultures of human airway myofibroblasts; format: cell-based; conditions: thrombin 20 units/ml
Experimental: as §1

CAF-5 = assay: 2D electrophoresis fold change of CAF-5 in primary cultures of human airway myofibroblasts; format: cell-based; conditions: thrombin 20 units/ml
Experimental: as §1

CAF-35 = assay: 2D electrophoresis fold change of CAF-35 in primary cultures of human airway myofibroblasts; format: cell-based; conditions: thrombin 20 units/ml, late
Experimental: as §1

CAF-19 = assay: 2D electrophoresis fold change of CAF-19 in primary cultures of human airway myofibroblasts; format: cell-based; conditions: thrombin 20 units/ml, late
Experimental: as §1

CAF-33 = assay: 2D electrophoresis fold change of CAF-33 in primary cultures of human airway myofibroblasts; format: cell-based; conditions: thrombin 20 units/ml, late
Experimental: as §1

CAF-2 = assay: 2D electrophoresis fold change of CAF-2 in primary cultures of human airway myofibroblasts; format: cell-based; conditions: thrombin 20 units/ml
Experimental: as §1

CAF-21 = assay: 2D electrophoresis fold change of CAF-21 in primary cultures of human airway myofibroblasts; format: cell-based; conditions: thrombin 20 units/ml
Experimental: as §1

CAF-34 = assay: 2D electrophoresis fold change of CAF-34 in primary cultures of human airway myofibroblasts; format: cell-based; conditions: thrombin 20 units/ml
Experimental: as §1

## C[C@@H]1C[C@H]2[C@@H]3CCC4=CC(=O)C=C[C@]4(C)[C@@]3(F)[C@@H](O)C[C@]2(C)[C@@]1(O)C(=O)CO [Dexamethasone, dexamethasone]
CAF-1; dexamethasone 1 μM, early
  Fold change following 1 h thrombin and 1 h Dexamethasone relative to cells treated with thrombin alone: 4.713
CAF-29; dexamethasone 1 μM, late
  Fold change following 6 h thrombin and 7 h Dexamethasone relative to cells treated with thrombin alone: −2.142
CAF-24; dexamethasone 1 μM
  Fold change following 1 h thrombin and 1 h Dexamethasone relative to cells treated with thrombin alone: 75.754
CAF-20; dexamethasone 1 μM
  Fold change following 1 h thrombin and 1 h Dexamethasone relative to cells treated with thrombin alone: 20.554
CAF-12; dexamethasone 1 μM
  Fold change following 1 h thrombin and 1 h Dexamethasone relative to cells treated with thrombin alone: 21.529
CAF-15; dexamethasone 1 μM, early
  Fold change following 1 h thrombin and 1 h Dexamethasone relative to cells treated with thrombin alone: 4.619
CAF-15; dexamethasone 1 μM, late
  Fold change following 6 h thrombin and 7 h Dexamethasone relative to cells treated with thrombin alone: −2.423
CAF-13; dexamethasone 1 μM, early
  Fold change following 1 h thrombin and 1 h Dexamethasone relative to cells treated with thrombin alone: 5.677
CAF-22; dexamethasone 1 μM
  Fold change following 1 h thrombin and 1 h Dexamethasone relative to cells treated with thrombin alone: −2.909
CAF-18; dexamethasone 1 μM, early
  Fold change following 1 h thrombin and 1 h Dexamethasone relative to cells treated with thrombin alone: 8.553
CAF-18; dexamethasone 1 μM, late
  Fold change following 6 h thrombin and 7 h Dexamethasone relative to cells treated with thrombin alone: −15.966
CAF-25; dexamethasone 1 μM, early
  Fold change following 1 h thrombin and 1 h Dexamethasone relative to cells treated with thrombin alone: 5.245
CAF-3; dexamethasone 1 μM, early
  Fold change following 1 h thrombin and 1 h Dexamethasone relative to cells treated with thrombin alone: 2.438

## Cn1c(=O)c2[nH]cnc2n(C)c1=O [theophylline]
CAF-5; theophylline 100 μM, early
  Fold change following 1 h thrombin and 1 h theophylline relative to cells treated with thrombin alone: 2.306
CAF-35; theophylline 100 μM
  Fold change following 6 h thrombin and 6 h theophylline relative to cells treated with thrombin alone: 2.182
CAF-1; theophylline 100 μM, early
  Fold change following 1 h thrombin and 1 h theophylline relative to cells treated with thrombin alone: 3.518
CAF-1; theophylline 100 μM, late
  Fold change following 6 h thrombin and 7 h theophylline relative to cells treated with thrombin alone: −2.122
CAF-19; theophylline 100 μM
  Fold change following 6 h thrombin and 6 h theophylline relative to cells treated with thrombin alone: 2.800
CAF-24; theophylline 100 μM
  Fold change following 1 h thrombin and 1 h theophylline relative to cells treated with thrombin alone: 19.892
CAF-20; theophylline 100 μM
  Fold change following 1 h thrombin and 1 h theophylline relative to cells treated with thrombin alone: 29.086
CAF-12; theophylline 100 μM
  Fold change following 1 h thrombin and 1 h theophylline relative to cells treated with thrombin alone: 39.410
CAF-15; theophylline 100 μM, early
  Fold change following 1 h thrombin and 1 h theophylline relative to cells treated with thrombin alone: 16.824
CAF-15; theophylline 100 μM, late
  Fold change following 6 h thrombin and 7 h theophylline relative to cells treated with thrombin alone: −2.077
CAF-13; theophylline 100 μM, early
  Fold change following 1 h thrombin and 1 h theophylline relative to cells treated with thrombin alone: 4.288
CAF-33; theophylline 100 μM
  Fold change following 6 h thrombin and 6 h theophylline relative to cells treated with thrombin alone: 2.031
CAF-22; theophylline 100 μM
  Fold change following 1 h thrombin and 1 h theophylline relative to cells treated with thrombin alone: −2.096
CAF-18; theophylline 100 μM, early
  Fold change following 1 h thrombin and 1 h theophylline relative to cells treated with thrombin alone: 26.692
CAF-18; theophylline 100 μM, late
  Fold change following 6 h thrombin and 7 h theophylline relative to cells treated with thrombin alone: 2.839
CAF-25; theophylline 100 μM, early
  Fold change following 1 h thrombin and 1 h theophylline relative to cells treated with thrombin alone: 10.216
CAF-25; theophylline 100 μM, late
  Fold change following 6 h thrombin and 6 h theophylline relative to cells treated with thrombin alone: 19.320
CAF-2; theophylline 100 μM, early
  Fold change following 1 h thrombin and 1 h theophylline relative to cells treated with thrombin alone: 4.912

## thrombin
CAF-5; early
  Fold change following 1 h thrombin, relative to untreated cells: −3.486
CAF-5; late
  Fold change following 6 h thrombin, relative to untreated cells: −2.846
CAF-21; early
  Fold change following 1 h thrombin, relative to untreated cells: −4.110
CAF-21; late
  Fold change following 6 h thrombin, relative to untreated cells: 4.186
CAF-34; early
  Fold change following 1 h thrombin, relative to untreated cells: 2.741
CAF-34; late
  Fold change following 6 h thrombin, relative to untreated cells: 5.005
CAF-35
  Fold change following 6 h thrombin, relative to untreated cells: −3.705
CAF-1; early
  Fold change following 1 h thrombin, relative to untreated cells: −4.393
CAF-1; late
  Fold change following 6 h thrombin, relative to untreated cells: 2.463
CAF-19
  Fold change following 6 h thrombin, relative to untreated cells: −2.815
CAF-29; early
  Fold change following 1 h thrombin, relative to untreated cells: 2.597
CAF-29; late
  Fold change following 6 h thrombin, relative to untreated cells: 2.169
CAF-24
  Fold change following 1 h thrombin, relative to untreated cells: −332.863
CAF-20
  Fold change following 1 h thrombin, relative to untreated cells: −16.512
CAF-12
  Fold change following 1 h thrombin, relative to untreated cells: −51.041
CAF-15; early
  Fold change following 1 h thrombin, relative to untreated cells: −14.045
CAF-15; late
  Fold change following 6 h thrombin, relative to untreated cells: 3.037
CAF-13; early
  Fold change following 1 h thrombin, relative to untreated cells: −2.425
CAF-13; late
  Fold change following 6 h thrombin, relative to untreated cells: 3.292
CAF-33
  Fold change following 6 h thrombin, relative to untreated cells: −4.459
CAF-22
  Fold change following 1 h thrombin, relative to untreated cells: 1.733
CAF-18; early
  Fold change following 1 h thrombin, relative to untreated cells: −19.780
CAF-18; late
  Fold change following 6 h thrombin, relative to untreated cells: 16.517
CAF-25; early
  Fold change following 1 h thrombin, relative to untreated cells: −8.122
CAF-25; late
  Fold change following 6 h thrombin, relative to untreated cells: −4.750
CAF-2; early
  Fold change following 1 h thrombin, relative to untreated cells: 7.832
CAF-2; late
  Fold change following 6 h thrombin, relative to untreated cells: 14.593
CAF-3; early
  Fold change following 1 h thrombin, relative to untreated cells: −2.976
CAF-3; late
  Fold change following 6 h thrombin, relative to untreated cells: 2.120
